Results on 16 molecules are retold here after ChEMBL document CHEMBL1909046, “DrugMatrix in vitro pharmacology data”.

A short description of experiment [1]: DRUGMATRIX: Sodium/nucleoside co-transporter radioligand binding (ligand: nitrobenzylthioinosine). Format: cell membranes, Cavia porcellus, Dunkin-Hartley, Cerebral cortex, Membrane. Conditions: Not Active = under 50% inhibition at 10 µM.
Experiment [2] is described as follows: DRUGMATRIX: Serotonin (5-Hydroxytryptamine) 5-HT3 radioligand binding (ligand: [3H] GR-65630). Format: cell membranes, Membrane. Particulars: hek293; Not Active = under 50% inhibition at 10 µM.
The target of experiment [3] is T1, C-X-C chemokine receptor type 1 (Homo sapiens, UniProt P25024). Note: in other assays of this panel Not Active means under 50% inhibition at 10 µM.
T1 sequence (P25024 whole entry): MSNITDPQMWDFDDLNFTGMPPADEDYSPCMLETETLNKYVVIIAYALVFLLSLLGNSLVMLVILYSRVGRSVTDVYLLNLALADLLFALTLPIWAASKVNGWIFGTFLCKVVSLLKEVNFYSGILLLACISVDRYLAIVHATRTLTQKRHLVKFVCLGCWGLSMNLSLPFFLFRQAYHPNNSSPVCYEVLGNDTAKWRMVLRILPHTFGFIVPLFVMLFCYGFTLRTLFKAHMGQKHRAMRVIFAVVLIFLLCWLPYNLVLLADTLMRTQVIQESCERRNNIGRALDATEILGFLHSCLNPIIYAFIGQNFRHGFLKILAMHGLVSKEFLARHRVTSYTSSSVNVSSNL

A further experiment concerns the target T2, Leukotriene C4 synthase (Cavia porcellus, UniProt A6XA80).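 Note: enzyme inhibition assay of leukotriene C4 synthase, using LTA4 as the substrate; in other assays of this panel Not Active means under 50% inhibition at 10 µM.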
T2 sequence (A6XA80 whole entry): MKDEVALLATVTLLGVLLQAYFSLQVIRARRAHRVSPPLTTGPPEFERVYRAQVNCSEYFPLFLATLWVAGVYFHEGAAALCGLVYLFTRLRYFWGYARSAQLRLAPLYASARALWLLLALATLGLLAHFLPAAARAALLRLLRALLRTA
Format: tissue-based, Lung.

A short description of experiment [4]: DRUGMATRIX: Potassium Channel [KATP] radioligand binding (ligand: [3H] Glyburide). Format: cell membranes, Membrane. Particulars: hit-t15; Not Active = under 50% inhibition at 10 µM.
Experiment [5] concerns the target Mitogen-activated protein kinase 14 (Homo sapiens, UniProt Q16539). On the set-up: species or system Escherichia coli.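 Note: inhibition of p38alpha enzyme activity in a biochemical kinase assay, with myelin basic protein serving as substrate; in other assays of this panel Not Active means under 50% inhibition at 10 µM.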
Experiment [6] addresses T3, 5-hydroxytryptamine receptor 1A (Rattus norvegicus, UniProt P19327).
T3 sequence (P19327 whole entry): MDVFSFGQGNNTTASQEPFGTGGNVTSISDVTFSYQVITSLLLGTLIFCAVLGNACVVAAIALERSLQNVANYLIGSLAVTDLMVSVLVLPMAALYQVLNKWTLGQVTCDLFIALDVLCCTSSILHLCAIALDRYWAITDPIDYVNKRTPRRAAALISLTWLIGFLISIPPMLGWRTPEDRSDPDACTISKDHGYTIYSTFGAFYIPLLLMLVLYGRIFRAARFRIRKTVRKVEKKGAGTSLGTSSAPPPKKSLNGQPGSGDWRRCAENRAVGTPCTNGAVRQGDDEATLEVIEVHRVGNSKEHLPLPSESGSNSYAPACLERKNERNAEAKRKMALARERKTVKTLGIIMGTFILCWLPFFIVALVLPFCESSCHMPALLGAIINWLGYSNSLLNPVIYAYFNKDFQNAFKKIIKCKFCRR
Format: cell membranes, CHO-K1, Membrane.

Sequence of Mitogen-activated protein kinase 14 (Q16539 whole entry): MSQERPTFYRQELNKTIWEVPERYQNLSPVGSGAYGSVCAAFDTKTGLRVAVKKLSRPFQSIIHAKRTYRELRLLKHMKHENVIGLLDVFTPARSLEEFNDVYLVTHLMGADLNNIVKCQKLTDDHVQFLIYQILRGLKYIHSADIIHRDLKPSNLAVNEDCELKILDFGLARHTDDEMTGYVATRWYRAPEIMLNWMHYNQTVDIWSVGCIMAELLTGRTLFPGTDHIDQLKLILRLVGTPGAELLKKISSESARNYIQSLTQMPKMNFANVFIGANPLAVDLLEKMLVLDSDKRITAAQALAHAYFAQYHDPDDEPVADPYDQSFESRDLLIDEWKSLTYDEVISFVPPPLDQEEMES

A word on the IC50: it is the midpoint of a concentration-inhibition curve. Usually Ki stands for a dissociation constant, usually derived from enzyme kinetics or from competition with a known ligand. For `CO[C@H]1C[C@@H]2CC[C@@H](C)[C@@](O)(O2)C(=O)C(=O)N2CCCC[C@H]2C(=O)O[C@H]([C@H](C)C[C@@H]2CC[C@@H](O)[C@H](OC)C2)CC(=O)[C@H](C)/C=C(\C)[C@@H](O)[C@@H](OC)C(=O)[C@H](C)C[C@H](C)/C=C/C=C/C=C/1C` [SIROLIMUS], the half-inhibitory concentration (IC50) is 1080 nM in experiment [1] (read-out: IC50); “Not Active” in experiment [2]; “Not Active” in experiment [3]; “Not Active” against Leukotriene C4 synthase; “Not Active” in experiment [4]; “Not Active” in experiment [5]. The half-maximal inhibitory concentration (IC50) result in experiment [6] (cho-k1) was “Not Active”. The Ki in experiment [1] (read-out: Ki) was 371 nM; in experiment [2], “Not Active”; in experiment [4], “Not Active”.
Regarding `CN[C@@H]1[C@H](O)[C@H](NC)[C@H]2O[C@@]3(O)C(=O)C[C@@H](C)O[C@H]3O[C@@H]2[C@H]1O` [SPECTINOMYCIN], the IC50 entry (in experiment [1]; in experiment [2]; in experiment [3]; against Leukotriene C4 synthase; in experiment [4]; in experiment [5]) was “Not Active” throughout. Besides, the 50% inhibitory concentration (IC50) entry in experiment [6] (cho-k1) is given as “Not Active”. The Ki result in experiment [1], in experiment [2] and in experiment [4] was “Not Active” throughout.
For `Nc1ccc(S(=O)(=O)Nc2ncccn2)cc1` [SULFADIAZINE], the IC50 result (in experiment [1]; in experiment [2]; in experiment [3]; on Leukotriene C4 synthase; in experiment [4]; in experiment [5]) was “Not Active” each time. Further, in experiment [6] (cho-k1), the half-maximal inhibitory concentration (IC50) entry is on record as “Not Active”. In addition, the Ki entry in experiment [1], in experiment [2] and in experiment [4] was “Not Active” each time.
`COc1ncnc(NS(=O)(=O)c2ccc(N)cc2)c1OC` [SULFADOXINE]: the IC50 result (in experiment [1]; in experiment [2]; in experiment [3]; against Leukotriene C4 synthase; in experiment [4]; in experiment [5]) was “Not Active” throughout. Further, the IC50 result in experiment [6] (cho-k1) is “Not Active”. Besides, the Ki entry in experiment [1], in experiment [2] and in experiment [4] was “Not Active” in each case.
In the case of `Nc1ccc(S(=O)(=O)Nc2nccs2)cc1` [SULFATHIAZOLE], the IC50 entry (in experiment [1]; in experiment [2]; in experiment [3]; against Leukotriene C4 synthase; in experiment [4]; in experiment [5]) was “Not Active” throughout. The half-inhibitory concentration (IC50) result in experiment [6] (cho-k1) was “Not Active”. Further, the Ki result in experiment [1], in experiment [2] and in experiment [4] was “Not Active” in each case.
Take `CC(C)(C)NC[C@H](O)COc1nsnc1N1CCOCC1` [TIMOLOL]: the 50% inhibitory concentration (IC50) result (in experiment [1]; in experiment [2]; in experiment [3]; against Leukotriene C4 synthase; in experiment [4]; in experiment [5]) was “Not Active” each time. For the same molecule, the IC50 in experiment [6] (read-out: IC50) came out at 2710 nM. Besides, the Ki result is “Not Active” in experiment [1], “Not Active” in experiment [2], “Not Active” in experiment [4] and 1550 nM in experiment [6] (read-out: Ki).
Regarding `CCS(=O)(=O)CCn1c([N+](=O)[O-])cnc1C` [TINIDAZOLE], the IC50 result (in experiment [1]; in experiment [2]; in experiment [3]; at Leukotriene C4 synthase; in experiment [4]; in experiment [5]) was “Not Active” each time. In addition, the 50% inhibitory concentration (IC50) entry in experiment [6] (cho-k1) is listed as “Not Active”. The Ki result in experiment [1], in experiment [2] and in experiment [4] was “Not Active” in each case.
`C[C@@H]1C[C@H]2[C@@H]3CCC4=CC(=O)C=C[C@]4(C)C3=CC[C@]2(C)[C@H]1C(=O)CN1CCN(c2cc(N3CCCC3)nc(N3CCCC3)n2)CC1` [TIRILAZAD]: the half-inhibitory concentration (IC50) result was “Not Active” in experiment [1]; “Not Active” in experiment [2]; “Not Active” in experiment [3]; “Not Active” against Leukotriene C4 synthase; “Not Active” in experiment [4]; 7.41 µM in experiment [5] (read-out: IC50). In addition, in experiment [6] (cho-k1), the IC50 result is “Not Active”. Also, the Ki result in experiment [1], in experiment [2] and in experiment [4] was “Not Active” throughout.
With `NC[C@H]1O[C@H](O[C@H]2[C@H](O)[C@@H](O[C@H]3O[C@H](CO)[C@@H](O)[C@H](N)[C@H]3O)[C@H](N)C[C@@H]2N)[C@H](N)C[C@@H]1O` [TOBRAMYCIN], the half-maximal inhibitory concentration (IC50) result (in experiment [1]; in experiment [2]; in experiment [3]; against Leukotriene C4 synthase; in experiment [4]; in experiment [5]) was “Not Active” in each case. Moreover, in experiment [6] (cho-k1), the IC50 result is “Not Active”. Besides, the Ki entry in experiment [1], in experiment [2] and in experiment [4] was “Not Active” each time.
For `O=C(O)C(Cl)(Cl)Cl` [TRICHLOROACETIC ACID], the IC50 result (in experiment [1]; in experiment [2]; in experiment [3]; against Leukotriene C4 synthase; in experiment [4]; in experiment [5]) was “Not Active” in each case. For the same molecule, the IC50 entry in experiment [6] (cho-k1) is recorded as “Not Active”. Moreover, the Ki result in experiment [1], in experiment [2] and in experiment [4] was “Not Active” each time.
In the case of `COc1ccc(CN2CCNCC2)c(OC)c1OC` [TRIMETAZIDINE], the 50% inhibitory concentration (IC50) result (in experiment [1]; in experiment [2]; in experiment [3]; on Leukotriene C4 synthase; in experiment [4]; in experiment [5]) was “Not Active” in each case. In addition, in experiment [6] (cho-k1), the IC50 result was “Not Active”. Further, the inhibition constant (Ki) result in experiment [1], in experiment [2] and in experiment [4] was “Not Active” throughout.
For the molecule `CC(=O)O[C@H]1C[C@@H]2CC[C@@H]3[C@H](CC[C@@]4(C)[C@H]3C[C@H]([N+]3(C)CCCCC3)[C@@H]4OC(C)=O)[C@@]2(C)C[C@@H]1N1CCCCC1.[Br-]` [VECURONIUM BROMIDE], the IC50 result (in experiment [1]; in experiment [2]; in experiment [3]; at Leukotriene C4 synthase; in experiment [4]; in experiment [5]) was “Not Active” in each case. Also, the half-inhibitory concentration (IC50) entry in experiment [6] (cho-k1) is “Not Active”. Further, the inhibitory constant (Ki) entry in experiment [1], in experiment [2] and in experiment [4] was “Not Active” in each case.
Regarding `COc1cc(C(=O)NS(=O)(=O)c2ccccc2C)ccc1Cc1cn(C)c2ccc(NC(=O)OC3CCCC3)cc12` [ZAFIRLUKAST], the IC50 entry in experiment [1] is “Not Active”; in experiment [2], “Not Active”; in experiment [3], “Not Active”; against Leukotriene C4 synthase it was “Not Active”; in experiment [4], “Not Active”; in experiment [5] (read-out: IC50) it was 0.353 µM. Further, the IC50 result in experiment [6] (cho-k1) is reported as “Not Active”. The inhibition constant (Ki) entry in experiment [1], in experiment [2] and in experiment [4] was “Not Active” throughout.
Take `Cc1cn([C@H]2C[C@H](N=[N+]=[N-])[C@@H](CO)O2)c(=O)[nH]c1=O` [ZIDOVUDINE]: the half-maximal inhibitory concentration (IC50) result (in experiment [1]; in experiment [2]; in experiment [3]; against Leukotriene C4 synthase; in experiment [4]; in experiment [5]) was “Not Active” in each case. Also, the IC50 result in experiment [6] (cho-k1) is on record as “Not Active”. In addition, the Ki entry in experiment [1], in experiment [2] and in experiment [4] was “Not Active” throughout.
For STANNOUS FLUORIDE, the 50% inhibitory concentration (IC50) entry (in experiment [1]; in experiment [2]; in experiment [3]; against Leukotriene C4 synthase; in experiment [4]; in experiment [5]) was “Not Active” in each case. Also, the IC50 entry in experiment [6] (cho-k1) is “Not Active”. The Ki entry (in experiment [1]; in experiment [2]; in experiment [3]; at Leukotriene C4 synthase; in experiment [4]; in experiment [5]) was “Not Active” throughout. The Ki result in experiment [6] (cho-k1) is “Not Active”.
THIMEROSAL: the IC50 result (in experiment [1]; in experiment [2]; in experiment [3]; against Leukotriene C4 synthase; in experiment [4]; in experiment [5]) was “Not Active” throughout. Moreover, the IC50 result in experiment [6] (cho-k1) is reported as “Not Active”. Also, the inhibition constant Ki result (in experiment [1]; in experiment [2]; in experiment [3]; at Leukotriene C4 synthase; in experiment [4]; in experiment [5]) was “Not Active” in each case. Also, the inhibitory constant (Ki) result in experiment [6] (cho-k1) is “Not Active”.
